Several values for one entry are separate records, joined by “and”; a condition that tells them apart may be missing. Identical values can stand only once.
What was measured:
KRAS^G12V-GppNHp = target: T1, KRAS^G12V-GppNHp (Homo sapiens, UniProt P01116, G12V); test: waterLOGSY NMR binding
T1 construct: made in house; host or cells: E. coli (pGEX-2T; strain named only for the HRAS plasmids)
Procedure: The waterLOGSY NMR method[35] was used to measure RAS ligand interaction. WaterLOGSY experiments were conducted at a ^1H frequency of 600 MHz using a Bruker Avance spectrometer equipped with a BBI probe. All experiments were conducted at 298 K, 3 mm diameter NMR tubes with a sample final volume of 200 µl was used in all experiments. Solutions were buffered using an H2O 10 mM PBS, 5 mM MgCl2 buffer corrected to pH 7.4. The sample preparation is exemplified as follows, the compound (10 µl of a […] solution in DMSO-d6) was added to an eppendorf before sequential addition of the H2O PBS buffer (163.6 µl), D2O (20 µl), and protein (6.4 µl, 311.8 µM). The resulting solution was spun to ensure full mixing and transferred to a 3 mm NMR tube before running the experiment. For a competition experiment using Y6-scFv or VH, the preparation was carried out in a similar manner; the compound (10 µl of a 10 mM solution in DMSO-d6) was added to an eppendorf before sequential addition of the H2O PBS buffer (146.4 µl), D2O (20 µl), protein (6.4 µl, 311.8 µM) and Y6-ScFv (17.2 µl, 116.6 µM) with a ratio of 5.5:1:1. The resulting solution was spun and transferred to a 3 mm NMR tube before the run. Negative controls (compound alone, without the protein) were prepared in a similar manner, in order to obtain an end volume of 200 μl.
Supplementary Figure 3: Abd-2 WaterLOGSY NMR with and without anti RAS-scFV Abd-2 was analyzed by waterLOGSY. […]
binding of Abd-2 to KRAS -GppNHp (upper trace, in green) but poor binding to KRAS-GDP (middle trace, in red). The proton NMR spectrum of Abd-2 in the absence of protein is […]
shown in the lower trace. Panel b, WaterLOGSY of Abd-2 with KRAS -GppNHp in the presence or absence of scFv competitor respectively top (no binding of Abd-2 to the […]
KRAS -GppNHp + scFv complex) and middle spectra (binding to KRAS -GppNHp without scFv) in purple and red respectively. The lower spectra is the proton NMR of Abd -2 in the absence of protein. Results from panel b confirm the interference of binding by the […]
(1 picture or pasted object on this page, not shown here)
(§1) Supplementary Figure 6: Abd-7 Binding in WaterLOGSy and Kd calculations in CPMG WaterLOGSY and CPMG NMR orthogonal analysis of Abd-5 (panel a, b), Abd-6 (c, d), and Abd-7 (e, f) with GST-KRASG12V-GppNHp. For each waterLOGSY profile, the proton NMR spectrum of the compound is shown together the spectra of the compound after incubation with the KRAS (the NOE transfers occurs when the compounds displace those waters upon binding to the protein). The Kd of interaction of the compounds come from fitting a binding curve (right of panels b, d, f) of a CPMG titration (shown on the left of panels b, d, f). The calculated Kd is shown for each compound.
(MW), Kd, Solubility and ligand efficiency (LE). […]

GST-KRASG12V-GppNHp = target: T2, GST-KRASG12V-GppNHp (Homo sapiens, UniProt P01116, G12V); test: 1H CPMG NMR protein titration for Kd; format: binding; settings: for Kd: CPMG NMR titration, 55 μM compound, read-out: Kd (binding affinity)
T2 construct: made in house; host or cells: E. coli (pGEX-2T; strain named only for the HRAS plasmids)
Procedure: Typical experimental parameters for Carr–Purcell-Meiboom-Gill (CPMG) NMR spectroscopy were the following: total echo time, 40 ms; relaxation delay, 2 s; and number of transients, […][53]. The PROJECT-CPMG sequence (90°x-[Ƭ-180°y-Ƭ- 90°y-Ƭ-180°y-Ƭ]n-acq) was applied. Water suppression was achieved by pre-saturation. Prior to Fourier transformation, the data were multiplied with an exponential function with 3-Hz line broadening. The CPMG experiments were conducted at a ^1H frequency of 700 MHz using a Bruker Avance with 5 mm inverse TCI 1 H/13 C/15 N cryo-probe. All experiments were conducted at 298 K and lapsed 128 scans. Furthermore, 3 mm diameter NMR tubes with a sample volume of 200 µl were used in all experiments. Solutions were buffered using a D2O PBS buffer corrected to pH 7.4. The sample preparation is exemplified as follow: with 5 µM of protein (PBS pH 7.4, 5 mM MgCl2), the compound (1.1 µl of a 10 mM (55 uM) solution in DMSO-d6) was added to an eppendorf before sequential addition of the D2O 10 mM PBS, 5 mM MgCl2 buffer adjusted to pH 7.4 (194.0 µl) and protein (4.9 µl, 205 µM, the protein is in an H2O-based buffer for stability reason). The resulting solution was vortexed to be fully mixed and transferred to a 3 mm NMR tube before the run. Negative controls (compound alone, without the protein) were prepared in a similar manner, in order to obtain an end volume of 200 µl. CPMG protein titration experiments were carried out at a fixed compound concentration and a variable protein concentration. It was estimated that 55 μM solution of the compound was optimum for a good CPMG; protein was titrate increasingly from 0 µM until the signal of the compound was undetected in the proton NMR. The integrations of the protons acquired were compared to the reference (compound alone, 0 µM of protein) in order to obtain a percentage of decrease for each concentration of protein. Three different proton signals were used and a mean was calculated for each run. Each protein concentration was run in triplicate and a mean was calculated for each concentration. Where error bars are presented, they correspond to mean values ± SD of experimental repeats. Concentration and percentage of decrease were plotted and Kd fitting was run on the generated curve using Origin® with the following function: A*(1/(2*C))*((B + x + C)-sqrt(((B + x + C)^2)-(4*x*C))) where A is the maximum % of inhibition (i.e. 100), B is the Kd and C is the concentration of the compound which should not be fixed in the Origin® Equation due to potential variations in compound solubility.
as §1
(MW), Kd, Solubility and ligand efficiency (LE). Each experiment was repeated at least three times. Where error bars are presented, they correspond to mean values ± SD of experimental repeats (b, d and f).

| binding to KRAS^G12V-GppNHp (waterLOGSY) (KRAS^G12V-GppNHp) | ligand efficiency (GST-KRASG12V-GppNHp) | Kd (GST-KRASG12V-GppNHp) [nM] | SMILES |
| --- | --- | --- | --- |
| confirmed | ~0.3 | 220 | COc1cccc(-c2cccc3c2OC(CNC(=O)c2ccc(OCCN(C)C)cc2)CO3)n1 (stereo not shown) [Abd-5] |
| preferential binding |  |  | O=C(NCC1COc2ccccc2O1)c1ccco1 (stereo not shown) [Abd-2] |
| confirmed | ~0.3 | 38 | COc1nc(-c2cccc3c2O[C@H](CNC(=O)C2CCOCC2)CO3)ccc1Nc1cccc(CN(C)C)c1 [Abd-6] |
| confirmed | ~0.3 and 0.34 | 51 | COc1nc(-c2cccc3c2OCCO3)ccc1Nc1ccc(CN(C)C)cc1 [Abd-7] |

From publication PMC6085350, “Small molecule inhibitors of RAS-effector protein interactions derived using an intracellular antibody fragment” (Nature Communications, 2018)
